Experimental data reported in patent US20220133717A1, “RABEXIMOD IN THE TREATMENT OF RHEUMATOID ARTHRITIS” (CYXONE AB, priority 2020, published 2022).

Columns and labels:
[1] = test system: patients with moderate or severe active rheumatoid arthritis; assay: Phase II clinical trial: efficacy (ACR20/50, DAS28, EULAR response, ACR components); assay type: in vivo, human
Description: The primary objective of this study was to evaluate the efficacy (American College of Rheumatology 20) of Rabeximod administered orally once daily for 12 weeks in combination with a stable dose of methotrexate in patients with moderate or severe active rheumatoid arthritis. Efficacy was evaluated by American College of Rheumatology 20 (66/68 joint count) after 12 weeks of treatment.
The primary endpoint of this study is the American College of Rheumatology (ACR20) 20 improvement measured after 12 weeks of treatment with study drug. The ACR20 is a composite score defined as an improvement of 20% in the number of swollen and tender joints and a 20% improvement in 3 of the following 5: • Patient self-assessed disability by modified Health Assessment Questionnaire (mHAQ) • Physician Global assessment • Subject Global assessment • Patient pain assessment • Acute phase reactant (C-reactive protein [CRP]) Secondary efficacy endpoints were as follows: • ACR20 improvement measured after 4 and 8 weeks of treatment • Subgroup analysis of ACR20 results from patients enrolled with baseline CRP >1.5 mg/dL. • ACR50/70 improvement measured after 4, 8 and 12 weeks • Original Disease Activity Score (DAS) change from baseline (according to the European League Against Rheumatism [EULAR] Response Criteria). Note: the Original DAS was replaced with DAS28 • Change from baseline in: number of swollen/tender joints, morning stiffness duration. Subject and Physician Global assessments, pain assessed by Visual Analogue Scale (VAS), self-assessed physical disability (mHAQ), erythrocyte sedimentation rate (ESR) and CRP • The evaluation of pharmacokinetic (PK) and pharmacodynamic (PD) high sensitive CRP, TNF-a, interleukin-6 [IL-6] and anti-cyclic citrullinated peptide antibody [anti-CCP]) over time
This was a multicentre, multinational, dose-ranging, randomised, double-blind, multiple dose, placebo-controlled, parallel-group study of Rabeximod administered orally in a total of 225 enrolled patients with moderate or severe active RA. All patients must have been receiving weekly methotrexate treatment for at least 16 weeks (with unchanged doses for at least 8 weeks) up to Day 0 of study.
Diagnosis of RA was based on the American Rheumatism Association (ARA) 1987 revised criteria, having an ACR global functional class of 1 to 3, stable methotrexate dose of at least 15 mg per week and central laboratory CRP level at study entry of at least 1.5 mg/dL and clinical findings of active disease (at least 6 swollen and 6 tender joints to palpation). Individual patient duration in the study was approximately 126 days (a 14-day screening period, an 84-day treatment period [12 weeks], and a 28 day [4-week] follow-up period).
After meeting the inclusion and exclusion criteria and providing informed consent, patients were randomly assigned (1:1:1:1 ratio) to receive 1 of the following treatments: • 6.25 mg Rabeximod • 15 mg Rabeximod • 37.5 mg Rabeximod • Placebo
An assessment of tender and swollen joints was performed for the ACR response criteria. Joints to be evaluated for disease activity assessment (using the ACR 66/68 joint count) included the following: temporomandibular, sternoclavicular, acromioclavicular, shoulder, elbow, wrist, all 5 metacarpophalangeal joints, 4 proximal interphalangeal joints, 4 distal interphalangeal, thumb interphalangeal joint, hip (for tenderness only), knee, ankle, tarsus, 5 metatarsophalangeal, 4 proximal interphalangeal and foot thumb interphalangeal joints at each side. In accordance with the protocol, an independent joint reviewer performed the rheumatology examination, where possible. If an independent joint reviewer was not available, the same examiner performed all rheumatology examinations for a patient throughout the study.
Patient satisfaction in performing activities of daily living was assessed using the mHAQ. […]

[2] = test system: patients with moderate or severe active rheumatoid arthritis; assay: Phase II clinical trial: safety (AEs, physical examinations, vital signs, ECG)
Description: The Phase II study was a randomised, parallel-group, double-blind, dose-ranging, placebo-controlled study of Rabeximod in patients with moderate or severe active RA with an inadequate response to methotrexate.
Safety assessments included AEs, vital signs, weight, physical examination, 12-lead ECG and safety laboratory tests (serum chemistry, haematology and urinalysis).
Safety measurements for this study included AEs, clinical laboratory tests, physical examinations, vital signs and resting 12-lead ECGs.

healthy male volunteers = assay: Phase 1 clinical trial: safety and tolerability of single and multiple oral rising doses; assay type: in vivo, human
Description: The Phase 1 study assessed the safety, tolerability, pharmacokinetics and pharmacodynamics of single and multiple oral rising doses of Rabeximod (in a capsule formulation) in healthy male volunteers. The study also included an open-label, randomised, two-period crossover part that was designed to investigate the effect of food on the pharmacokinetics of Rabeximod. In total, 87 healthy male subjects were enrolled into the study.

Cc1cc2nc3c4cc(Cl)ccc4n(CC(=O)NCCN(C)C)c3nc2cc1C [Rabeximod, 9-Chloro-2,3-dimethyl-6-(N,N-dimethylaminoethylamino-2-oxoethyl)-6H-indolo-[2,3-b]quinoxaline]
percentage mean reduction in joint pain, comparison of dose groups ([1]; 15 mg group): best results
percentage of patients achieving ACR50, comparison of dose groups ([1]; 15 mg group): best results
reduction in duration of morning stiffness, comparison of dose groups ([1]; 15 mg group, especially at week 16): best results
percentage of patients achieving ACR50 response compared with placebo ([1]; "At Week" (number not given), 6.25, 15 and 37.5 mg groups): higher percentage
change from baseline in each component of the ACR response (joint count 66/68, Global assessments VAS, joint pain, HAQ-DI, CRP, ESR) ([1]; Rabeximod groups): notable decrease (improvement)
change in mean DAS28 score from baseline ([1]; Week 12, 6.25 mg group (placebo −0.983)): −1.063 points
change in mean DAS28 score from baseline ([1]; Week 12, 15 mg group (placebo −0.983)): −1.214 points
change in mean DAS28 score from baseline ([1]; Week 12, 37.5 mg group (placebo −0.983)): −1.204 points
proportion of patients achieving ACR20 compared with placebo ([1]; Week 12, Rabeximod groups): larger proportion
increases in the proportions of patients achieving ACR50 ([1]; Week 16): greater
percentage mean reduction from baseline in swollen (66) and tender (68) joint counts, Physician and Subject Global assessments ([1]; Week 16): notable improvements
percentage of patients achieving a good or moderate EULAR response ([1]; Week 16, 6.5 mg group (placebo 38.5%)): 37.8%
proportions of patients achieving ACR20, comparison of dose groups ([1]; Week 16, 15 mg group): best results
reduction in swollen/tender joint counts and Global assessments, comparison of dose groups ([1]; Week 16, 15 mg group): best results
percentage of patients achieving a good or moderate EULAR response ([1]; Week 16, 15 mg group (placebo 38.5%)): 67.7%
percentage of patients achieving a good or moderate EULAR response ([1]; Week 16, 37.5 mg group (placebo 38.5%)): 55.8%
proportions of patients achieving ACR20 ([1]; Week 16, Rabeximod groups): continued to increase
duration of morning stiffness compared with placebo ([1]; majority of time points, Rabeximod groups): greater reductions (improvement)
improvement in symptoms compared with placebo (plus methotrexate) ([1]; onset at least 8-12 weeks after first dose, further improvement at Week 16): greater improvement
percentage mean reduction from baseline in joint pain ([1]; week 1): notable
proportion of patients experiencing study drug-related AEs ([2]; 37.5 mg group (32 patients)): 58.2%
deaths during the study ([2]; 12 weeks treatment, 4 weeks follow-up): No deaths
proportion of patients experiencing study drug-related AEs ([2]; Rabeximod groups pooled (placebo 11.1%)): 34.5%
majority of changes in physical examinations ([2]; all occurred in the Rabeximod group, most reported as AEs): skin abnormalities
relation of skin abnormality events to dose ([2]; majority in 37.5 mg group, then 15 mg, then 6.25 mg): dose response
tolerability ([2]; once daily at 6.25, 15 and 37.5 mg, RA patients taking methotrexate): well-tolerated
changes in vital signs and 12-lead ECGs ([2]; over the course of the study): no notable changes
tolerability (healthy male volunteers; multiple dose of 600 mg loading followed by 100 mg): less well tolerated due to phototoxicity reactions
tolerability (healthy male volunteers; multiple oral doses up to a 200 mg loading dose followed by 50 mg maintenance dose): well tolerated
tolerability (healthy male volunteers; single dose of 600 mg): less well tolerated due to phototoxicity reactions
tolerability (healthy male volunteers; single oral doses up to 400 mg): well tolerated
